Reference: article PMC5344255, “Design, Synthesis and Biochemical Evaluation of Novel Selective Estrogen Receptor Ligand Conjugates Incorporating an Endoxifen-Combretastatin Hybrid Scaffold” (Biomedicines, 2016)

What was measured:
Assay type in all cases: cell-based
[1] = system: MCF-7 human breast cancer cells; test: MTT assay for antiproliferative effects in MCF-7; settings: for inhibition at 10 µM: MCF7, MCF-7, read-out: growth inhibition
Description: (§1) The human breast carcinoma cell line, MCF-7, was purchased from the European Collection of Animal Cell Cultures (ECACC). The cells were maintained in MCF-7 complete medium; consisting of Eagle’s Minimum Essential Medium (MEM) supplemented with 10% (v/v) Foetal Bovine Serum (FBS), 2 mM L-glutamine, 100 μg/mL penicillin/streptomycin and 1% (v/v) non-essential amino acids. Cell cultures were maintained at 37 °C under a humidified atmosphere of 5% CO2/95% O2. The human breast carcinoma cell line, MDA, was purchased from the European Collection of Animal Cell Cultures (ECACC). The cells were maintained in MDA complete medium; consisting of Dulbecco’s Modified Eagle’s Medium (D-MEM) supplemented with 10% (v/v) Foetal Bovine Serum (FBS), 2 mM L-glutamine, 100 μg/mL penicillin/streptomycin. Cell cultures were maintained at 37 °C under a humidified atmosphere of 5% CO2/95% O2. The MTT assay was performed according to the reported protocol. The tetrazolium salt, 3-(4,5-dimethylthiazol-2-yl)-2,5-diphenyltetrazolium bromide (MTT) is taken up only by metabolically active cells and cleaved to form a formazan dye by mitochondrial dehydrogenases. Assays where repeated in three experiments performed in triplicate (unless otherwise stated) and reported results represent the mean value ± standard error mean. Graphs of percentage cell viability versus concentration of the subject compound were processed using PRISM [31].

[2] = system: MCF-7 human breast cancer cells; test: Lactate dehydrogenase (LDH) cytotoxicity assay in MCF-7; settings: % cell lysis at 10 µM
Description: (§2) In this assay, the release of cytoplasmic lactate dehydrogenase (LDH) is used as a measure of cell lysis. MCF-7 and MDA-MB-231 cells were seeded at a density of 1 × 10^4 cells/well in a 96-well plate and incubated for 24 h. The cells were then dosed with 2 μL volumes of the test compounds, over the concentration range 1 nM–50 μM. Cytotoxicity was determined using the CytoTox 96 nonradioactive cytotoxicity assay (Promega, Madison, WI, USA) following the manufacturer’s protocol.

[3] = system: MDA-MB-231 human breast cancer cells; test: MTT assay for antiproliferative effects in MDA-MB-231; settings: MDA-MB-231, MTT assay
Description: as §1, with “Cell cultures were maintained at 37 °C under a humidified atmosphere of 5% CO2/95% O2.” left out, “Assays where repeated in three experiments performed in triplicate (unless otherwise stated) and reported results represent the mean value ± standard error mean.” left out

[4] = system: MDA-MB-231 human breast cancer cells; test: Lactate dehydrogenase (LDH) cytotoxicity assay in MDA-MB-231; settings: % cell lysis at 10 μM
Description: as §2

[5] = Homo sapiens, MCF7, MCF-7, MTT assay, mean of at least three experiments in triplicate
[6] = MCF-7, MTT assay, mean of at least three experiments in triplicate
[7] = Homo sapiens, MCF7, MCF-7, MTT assay, values in nM

COc1ccc(/C=C(/C(=O)N2CCCC2)c2cc(OC)c(OC)c(OC)c2)cc1 [Compound 52, (E)-3-(4-Methoxyphenyl)-1-(pyrrolidin-1-yl)-2-(3,4,5-trimethoxyphenyl)prop-2-en-1-one]
IC50 [1, 5]: > 50000 nM

CCC(=C(c1ccc(O)cc1)c1ccc(OCCN(C)C(=O)/C(=C/c2ccc(C)cc2)c2cc(OC)c(OC)c(OC)c2)cc1)c1ccc(O)cc1 (mixture of isomers) [Compound 38, (E)-N-(2-{4-[(E/Z)-1,2-Bis-(4-hydroxyphenyl)but-1-enyl]phenoxy}ethyl)-N-methyl-3-p-tolyl-2-(3,4,5-trimethoxyphenyl)acrylamide]
IC50 [1, 5]: 372 nM
% Cell Death at 10 μM [2]: 12%

COc1ccc(/C=C(/C(=O)N2CCCCC2)c2cc(OC)c(OC)c(OC)c2)cc1 [Compound 53, (E)-3-(4-Methoxyphenyl)-1-(piperidin-1-yl)-2-(3,4,5-trimethoxyphenyl)prop-2-en-1-one]
inhibition at 10 µM ([1]; Homo sapiens): 35%

CCC(=C(c1ccc(O)cc1)c1ccc(OCCN(C)C(=O)/C(=C/c2ccc(Br)cc2)c2cc(OC)c(OC)c(OC)c2)cc1)c1ccc(O)cc1 (mixture of isomers) [Compound 42, (E)-N-(2-{4-[(E/Z)-1,2-Bis-(4-hydroxyphenyl)but-1-enyl]phenoxy}ethyl)-3-(4-bromophenyl)-N-methyl-2-(3,4,5-trimethoxyphenyl)acrylamide]
IC50 [1, 5]: 2350 nM
IC50 [3]: > 50000 nM
% Cell Death at 10 μM [4]: 9%
% Cell Death at 10 μM [2]: 7%

COc1ccc(/C=C(/C(=O)O)c2cc(OC)c(OC)c(OC)c2)cc1O [Compound 13]
IC50 [1, 5]: 120 nM

COc1ccc(/C=C(/C(=O)O)c2cc(OC)c(OC)c(OC)c2)cc1 [Compound 14]
IC50 [1, 5]: < 10000 nM
IC50 [1, 6]: 7800 nM

COc1ccc(/C=C(/C(=O)N2CCCCC2)c2cc(OC)c(OC)c(OC)c2)cc1N [Compound 55, (E)-3-(3-Amino-4-methoxyphenyl)-1-(piperidin-1-yl)-2-(3,4,5-trimethoxyphenyl)prop-2-en-1-one]
inhibition at 10 µM ([1]; Homo sapiens): 34%

CCC(=C(c1ccc(O)cc1)c1ccc(OCCN(C)C(=O)/C(=C/c2ccc(OC)cc2)c2cc(OC)c(OC)c(OC)c2)cc1)c1ccc(O)cc1 (mixture of isomers) [Compound 30, (E)-N-(2-{4-[(E/Z)-1,2-Bis-(4-hydroxyphenyl)but-1-enyl]phenoxy}ethyl)-3-(4-methoxyphenyl)-N-methyl-2-(3,4,5-trimethoxyphenyl)acrylamide]
IC50 [1, 5]: 43 nM
IC50 [3]: 6290 nM
% Cell Death at 10 μM [4]: 7%
% Cell Death at 10 μM [2]: 19%

CCC(=C(c1ccc(O)cc1)c1ccc(OCCN(C)C(=O)/C(=C/c2ccc(SC)cc2)c2cc(OC)c(OC)c(OC)c2)cc1)c1ccc(O)cc1 (mixture of isomers) [Compound 40, (E)-N-(2-{4-[(E/Z)-1,2-Bis-(4-hydroxyphenyl)but-1-enyl]phenoxy}ethyl)-N-methyl-3-(4-methylsulfanylphenyl)-2-(3,4,5-trimethoxyphenyl)acrylamide]
IC50 [1, 5]: 64 nM
% Cell Death at 10 μM [2]: 2%

CCC(=C(c1ccc(O)cc1)c1ccc(OCCN(C)C(=O)/C(=C/c2ccc3c(c2)OCO3)c2ccc(OC)cc2)cc1)c1ccc(O)cc1 (mixture of isomers) [Compound 34, (E)-3-Benzo[1,3]dioxol-5-yl-N-(2-{4-[(E/Z)-1,2-bis-(4-hydroxyphenyl)but-1-enyl]phenoxy}ethyl)-2-(4-methoxyphenyl)-N-methylacrylamide]
IC50 [1, 5]: 49 nM
IC50 [3]: 680 nM
% Cell Death at 10 μM [4]: 16%
% Cell Death at 10 μM [2]: 6%

CCC(=C(c1ccc(O)cc1)c1ccc(OCCN(C)C(=O)/C(=C/c2ccc(SC)cc2)c2cc(OC)c(OC)c(OC)c2)cc1)c1ccccc1 (mixture of isomers) [Compound 39, (E)-N-(2-{4-[(E/Z)-1-(4-Hydroxyphenyl)-2-phenylbut-1-enyl]phenoxy}ethyl)-N-methyl-3-(4-methylsulfanylphenyl)-2-(3,4,5-trimethoxyphenyl) acrylamide]
IC50 [1, 5]: 790 nM
% Cell Death at 10 μM [2]: 3%

COc1ccc(/C(=C\c2cc(OC)c(OC)c(OC)c2)C(=O)O)cc1 [Compound 23]
IC50 [1, 5]: > 50000 nM

COc1ccc(/C(=C\c2cc(OC)c(OC)c(OC)c2)C(=O)N2CCCC2)cc1 [Compound 48, (E)-2-(4-methoxyphenyl)-1-(pyrrolidin-1-yl)-3-(3,4,5-trimethoxyphenyl)prop-2-en-1-one]
IC50 [1, 5]: > 50000 nM

CCC(=C(c1ccc(O)cc1)c1ccc(OCCN(C)C(=O)/C(=C/c2ccc3ccccc3c2)c2cc(OC)c(OC)c(OC)c2)cc1)c1ccc(O)cc1 (mixture of isomers) [Compound 36, (E)-N-(2-{4-[(E/Z)-1,2-Bis-(4-hydroxyphenyl)but-1-enyl]phenoxy}ethyl)-N-methyl-3-naphthalen-2-yl-2-(3,4,5-trimethoxyphenyl)acrylamide]
IC50 [1, 5]: 3620 nM
IC50 [1, 7]: 1.51 nM
IC50 [3]: 4320 nM
% Cell Death at 10 μM [4]: 0%
% Cell Death at 10 μM [2]: 3%

CCC(=C(c1ccc(O)cc1)c1ccc(OCCN(C)C(=O)/C(=C/c2ccc(OC)cc2)c2cc(OC)c(OC)c(OC)c2)cc1)c1ccccc1 (mixture of isomers) [Compound 29, (E)-N-(2-{4-[(E/Z)-1-(4-Hydroxyphenyl)-2-phenylbut-1-enyl]phenoxy}-ethyl)-3-(4-methoxyphenyl)-N-methyl-2-(3,4,5-trimethoxyphenyl)acrylamide]
IC50 [1, 5]: 87 nM
IC50 [3]: 30600 nM
% Cell Death at 10 μM [4]: 2%
% Cell Death at 10 μM [2]: 12%

COc1ccc(/C=C(/C(=O)N2CCCCC2)c2cc(OC)c(OC)c(OC)c2)cc1O [Compound 49, (E)-3-(3-hydroxy-4-methoxyphenyl)-1-(piperidin-1-yl)-2-(3,4,5-trimethoxyphenyl)prop-2-en-1-one]
IC50 [1, 5]: > 50000 nM

CCC(=C(c1ccc(O)cc1)c1ccc(OCCN(C)C(=O)/C(=C/c2ccc(OC)c(F)c2)c2cc(OC)c(OC)c(OC)c2)cc1)c1ccc(O)cc1 (mixture of isomers) [Compound 44, (E)-N-(2-{4-[(E/Z)-1,2-Bis-(4-hydroxyphenyl)but-1-enyl]phenoxy}ethyl)-3-(3-fluoro-4-methoxyphenyl)-N-methyl-2-(3,4,5-trimethoxyphenyl)acrylamide]
IC50 [1, 5]: 194 nM
IC50 [3]: 1850 nM
% Cell Death at 10 μM [4]: 14%
% Cell Death at 10 μM [2]: 10%

CCC(=C(c1ccc(O)cc1)c1ccc(OCCN(C)C(=O)/C(=C/c2ccc(C)cc2)c2cc(OC)c(OC)c(OC)c2)cc1)c1ccccc1 (mixture of isomers) [Compound 37, (E)-N-(2-{4-[(E/Z)-1-(4-Hydroxyphenyl)-2-phenylbut-1-enyl]phenoxy}ethyl)-N-methyl-3-p-tolyl-2-(3,4,5-trimethoxyphenyl)acrylamide]
IC50 [1, 5]: 1750 nM
IC50 [1, 7]: 3.62 nM
% Cell Death at 10 μM [2]: 2%

CCC(=C(c1ccc(O)cc1)c1ccc(OCCN(C)C(=O)/C(=C/c2ccc3ccccc3c2)c2cc(OC)c(OC)c(OC)c2)cc1)c1ccccc1 (mixture of isomers) [Compound 35, (E)-N-(2-{4-[(E/Z)-1-(4-Hydroxyphenyl)-2-phenylbut-1-enyl]phenoxy}ethyl)-N-methyl-3-naphthalen-2-yl-2-(3,4,5-trimethoxyphenyl) acrylamide]
IC50 [1, 5]: 1510 nM
IC50 [3]: 2160 nM
% Cell Death at 10 μM [4]: 0%
% Cell Death at 10 μM [2]: 0%

COc1ccc(/C(=C\c2ccc3c(c2)OCO3)C(=O)O)cc1 [Compound 25]
IC50 [1, 6]: > 50000 nM

COc1ccc(/C=C(/C(=O)N2CCCC2)c2cc(OC)c(OC)c(OC)c2)cc1N [Compound 54, (E)-3-(3-Amino-4-methoxyphenyl)-1-(pyrrolidin-1-yl)-2-(3,4,5-trimethoxyphenyl)prop-2-en-1-one]
IC50 [1, 5]: > 50000 nM

CC/C(=C(\c1ccc(O)cc1)c1ccc(OCCN(C)C)cc1)c1ccccc1 [4-Hydroxytamoxifen, reference compound]
IC50 [3]: 18000 nM
% Cell Death at 10 μM [4]: 0%

COc1ccc(/C=C(/C(=O)O)c2cc(OC)c(OC)c(OC)c2)cc1F [Compound 15]
IC50 [1, 5]: 55100 nM
